Data reported in PubChem BioAssay AID2060333 (Molecular Pharmacology Branch, DTP, NCI, 2025).
“And” between values parts separate entries of the source, which are not always exact repeats. Identical values can stand only once.

Tested on: 845751-090-R-J2-PDC tumor spheroid viability
Test: Anticancer human tumor 845751-090-R-J2-PDC patient-derived head and neck squamous carcinoma cell line growth inhibition [IpAb]
Conditions: spheroids with HUVEC and MSC; for viability, T/C: stronger effect = lower value
Text: Combinatorial screen of targeted agents with ipatasertib and abemaciclib in multi-cell type tumor spheroids
A high-throughput screen of multi-cell type tumor spheroids was designed to identify active combinations of targeted small molecules and ipatasertib or abemaciclib. Complex spheroids include a stromal component modeled by human endothelial cells (HUVEC) and fibroblasts modeled by human mesenchymal stem cells (MSCs). The concentration ranges selected for each drug and investigational agent were based upon clinically achievable concentrations if the clinical Cmax of the agent was known.
Compounds. The drugs and investigational agents: ipatasertib (NSC767898), abemaciclib(NSC768073), selumetinib (NSC741078), trametinib (758246), adavosertib (NSC754352), everolimus (NSC733504), sapanisertib (NSC764658), vemurafenib (NSC761431), venetoclax (NSC766270), copanlisib (NSC809693), apelisib (NSC765974), palbociblib (NSC758247), vemurafenib (NSC761431), dabrafenib (NSC764134), ravoxertinib (NSC781343), BMS-387032 (NSC767048), sotorasib (NSC818433), talazoparib (NSC767125) and afursertib (NSC778305), were obtained from the National Cancer Institute (NCI) Developmental Therapeutics Program Chemical Repository. The FDA-approved anticancer drug set is available from the NCI Developmental Therapeutics Program. […] The stock solutions were prepared in dimethyl sulfoxide (DMSO, Sigma-Aldrich, St. Louis, MO, cat. D2650) at 800-fold the tested concentration and stored at -70 degrees C prior to their use. All drugs and investigational agents were tested over a range starting from a high concentration at or near the clinical Cmax and decreasing in half-log increments. If the clinical Cmax for an agent had not been determined, the highest concentration tested was 10 microM.
NCI60 Cell Culture. NCI60 cell lines were obtained from the NCI Developmental Therapeutics Program Tumor Repository. For each lot of cells, the Repository performed Applied Biosystems AmpFLSTR Identifiler testing with PCR amplification to confirm consistency with the published Identifier STR profile for each cell line. Cells were kept in continuous culture for no more than 20 passages. The optimal seeding densities for each of the cell lines at each time point assessed were determined prior to performing the concentration response studies. Briefly, the NCI60 human tumor lines were grown as monolayers in RPMI 1640 medium supplemented with 10% FBS and 2 mmol/L L-glutamine.
An additional 9 lines were from the NCI60 cell line panel including MDA-MB-231 breast carcinoma, MDA-MB-468 breast carcinoma, MCF7 breast carcinoma, Hs578T breast carcinoma, MALME-3M melanoma, SK-MEL-2 melanoma, SK-OV-3 ovarian carcinoma, DU-145 prostate carcinoma, PC-3 prostate carcinoma, all cell lines along with major genetic alterations are listed on Table 2. Pooled donor human umbilical vein endothelial cells (HUVEC, Lonza, cat. CC-2519) and human mesenchymal stem cells (hMSC, Lonza, cat. PT-2501) were purchased from Lonza (Walkersville, MD).
PDMR cell lines were grown in complete medium (DC medium): Dulbecco's modified Eagle's medium (DMEM)/F12 supplemented with 5% fetal bovine serum (FBS), 2 mM L-glutamine, 100 U/mL penicillin and 100 µg/ml streptomycin, 0.4 µg/ml hydrocortisone, 10 ng/ml epidermal growth factor (EGF) recombinant human protein, 24 µg/mL adenine, and 0.1 mg/mL primocin. During culture from frozen stock vials, PDMR cells were cultured in the same medium containing 10 µM Y-27632 (see Table 3). The PDCs were cultured in complete DMEM/F12 media without 10 microM Y-27632 dihydrochloride for at least two passages prior to the screen. The pooled donor HUVEC and hMSC were cultured in endothelial cell growth medium 2 (PromoCell, Heidelberg, Germany, cat. C-22011) and mesenchymal stem cell growth medium 2 (PromoCell, cat. C-28009), respectively. For all experiments, HUVEC and hMSC were used at passages </=5.
[…]

[1] = curve of first compound, second compound 0.1 µM
[2] = curve of first compound, second compound 0.316 µM
[3] = curve of first compound, second compound 1 µM
[4] = second compound 0.1 µM, first compound 0.00316 µM
[5] = second compound 0.1 µM, first compound 0.01 µM
[6] = second compound 0.1 µM, first compound 0.0316 µM
[7] = second compound 0.1 µM, first compound 0.1 µM
[8] = second compound 0.316 µM, first compound 0.00316 µM
[9] = second compound 0.316 µM, first compound 0.01 µM
[10] = second compound 0.316 µM, first compound 0.0316 µM
[11] = second compound 0.316 µM, first compound 0.1 µM
[12] = second compound 1 µM, first compound 0.00316 µM
[13] = second compound 1 µM, first compound 0.01 µM
[14] = second compound 1 µM, first compound 0.0316 µM
[15] = second compound 1 µM, first compound 0.1 µM
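Also: spheroids exposed to compounds for 7 days before readout.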
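For viability, T/C in this document: CTG3D luminescence normalised so that 100% = DMSO vehicle control.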

In the case of `COc1c(OCCCN2CCOCC2)ccc2c3n(c(=NC(=O)c4cnc(N)nc4)nc12)CCN3`, the viability, T/C (compound 0.00316 µM) is reported as 85.1% and 76.3%, the viability, T/C (compound 0.01 µM) is reported as 62.6% and 60.3% and the viability, T/C (compound 0.0316 µM) is reported as 36.9% and 35.4%. For the same compound, the viability, T/C (compound 0.1 µM) was 19.8% and 22.2%, the viability, T/C (compound 0.316 µM) was 13.8% and 16.1% and the viability, T/C (compound 1 µM) was 4.09% and 9.06%. For the same compound, the IC50 (curve of compound) was 17.6 nM and 16.1 nM.
Work on `Cn1ncnc1[C@H]1c2n[nH]c(=O)c3cc(F)cc(c23)N[C@@H]1c1ccc(F)cc1` + CC(C)NCC(C(=O)N1CCN(c2ncnc3c2C(C)CC3O)CC1)c1ccc(Cl)cc1 yielded an IC50 [1] of 25.8 nM, an IC50 [2] of under 0.316 nM and an IC50 [3] of under 0.316 nM. The IC50 (curve of first compound, second compound 3.16 µM) was under 0.316 nM, the IC50 (curve of first compound, second compound 10 µM) was under 0.316 nM and the viability, T/C (second compound 0.1 µM, first compound 0.000316 µM) was 53.9%. The viability, T/C (second compound 0.1 µM, first compound 0.001 µM) was 88.8%, the viability, T/C [4] was 57% and the viability, T/C [5] was 49.1%. It also gave a viability, T/C [6] of 54.1%, a viability, T/C [7] of 33.6% and a viability, T/C (second compound 0.316 µM, first compound 0.000316 µM) of 38.1%. For the same compound, the viability, T/C (second compound 0.316 µM, first compound 0.001 µM) was 25%, the viability, T/C [8] was 34.4% and the viability, T/C [9] was 29.6%. It also gave a viability, T/C [10] of 26.1%, a viability, T/C [11] of 22.3% and a viability, T/C (second compound 1 µM, first compound 0.000316 µM) of 30.1%. The viability, T/C (second compound 1 µM, first compound 0.001 µM) was 27.1%, the viability, T/C [12] was 23.8% and the viability, T/C [13] was 28.5%. For the same compound, the viability, T/C [14] was 22.9%, the viability, T/C [15] was 20% and the viability, T/C (second compound 3.16 µM, first compound 0.000316 µM) was 29.6%. For the same compound, the viability, T/C (second compound 3.16 µM, first compound 0.001 µM) was 22.4%, the viability, T/C (second compound 3.16 µM, first compound 0.00316 µM) was 20.2% and the viability, T/C (second compound 3.16 µM, first compound 0.01 µM) was 24.8%. It also gave a viability, T/C (second compound 3.16 µM, first compound 0.0316 µM) of 14.7%, a viability, T/C (second compound 3.16 µM, first compound 0.1 µM) of 14.8% and a viability, T/C (second compound 10 µM, first compound 0.000316 µM) of 14.8%. For the same compound, the viability, T/C (second compound 10 µM, first compound 0.001 µM) was 16.9%, the viability, T/C (second compound 10 µM, first compound 0.00316 µM) was 12.3% and the viability, T/C (second compound 10 µM, first compound 0.01 µM) was 10.7%. The viability, T/C (second compound 10 µM, first compound 0.0316 µM) was 11.6% and the viability, T/C (second compound 10 µM, first compound 0.1 µM) was 9.65%.
Compound `COc1c(OCCCN2CCOCC2)ccc2c3n(c(=NC(=O)c4cnc(N)nc4)nc12)CCN3` + CCN1CCN(Cc2ccc(Nc3ncc(F)c(-c4cc(F)c5nc(C)n(C(C)C)c5c4)n3)nc2)CC1 has an IC50 (curve of first compound, second compound 0.01 µM) of 7.18 nM, an IC50 (curve of first compound, second compound 0.0316 µM) of 4.99 nM and an IC50 [1] of 5.23 nM. The IC50 [2] was 6.38 nM, the IC50 [3] was 10.6 nM and the viability, T/C (second compound 0.01 µM, first compound 0.00316 µM) was 63.3%. For the same compound, the viability, T/C (second compound 0.01 µM, first compound 0.01 µM) was 43.5%, the viability, T/C (second compound 0.01 µM, first compound 0.0316 µM) was 30.8% and the viability, T/C (second compound 0.01 µM, first compound 0.1 µM) was 13.7%. The viability, T/C (second compound 0.01 µM, first compound 0.316 µM) was 10.6%, the viability, T/C (second compound 0.01 µM, first compound 1 µM) was 4.54% and the viability, T/C (second compound 0.0316 µM, first compound 0.00316 µM) was 54%. For the same compound, the viability, T/C (second compound 0.0316 µM, first compound 0.01 µM) was 43.6%, the viability, T/C (second compound 0.0316 µM, first compound 0.0316 µM) was 28.3% and the viability, T/C (second compound 0.0316 µM, first compound 0.1 µM) was 11.9%. It also gave a viability, T/C (second compound 0.0316 µM, first compound 0.316 µM) of 8.73%, a viability, T/C (second compound 0.0316 µM, first compound 1 µM) of 3.86% and a viability, T/C [4] of 56.5%. For the same compound, the viability, T/C [5] was 41.6%, the viability, T/C [6] was 26.3% and the viability, T/C [7] was 11.7%. It also gave a viability, T/C (second compound 0.1 µM, first compound 0.316 µM) of 12.8%, a viability, T/C (second compound 0.1 µM, first compound 1 µM) of 3.55% and a viability, T/C [8] of 68.2%. It also gave a viability, T/C [9] of 35.9%, a viability, T/C [10] of 24.6% and a viability, T/C [11] of 15.8%. The viability, T/C (second compound 0.316 µM, first compound 0.316 µM) was 11.7%, the viability, T/C (second compound 0.316 µM, first compound 1 µM) was 4.79% and the viability, T/C [12] was 60%. The viability, T/C [13] was 54.1%, the viability, T/C [14] was 31.2% and the viability, T/C [15] was 21.5%. For the same compound, the viability, T/C (second compound 1 µM, first compound 0.316 µM) was 12.6% and the viability, T/C (second compound 1 µM, first compound 1 µM) was 5.48%.
